# Where two headings read alike, the source gives them in different places.
# Experiments:
# [1] = Kinetic solubility assay; assay type: physicochemical; conditions: for solubility at 6 h: physiological buffer, pH 7.4, kinetic solubility, physiological buffer pH 7.4, room temperature, six hours
# Procedure: A stock solution of each active compound in DMSO (10 mg/mL) was prepared and diluted into physiological buffer (pH 7.4) to a concentration of 100 µg/mL, and the mixture was left at room temperature for six hours. After six hours, the sample was centrifuged, and the supernatant was diluted with a methanol-water solution containing an internal standard (IS). The calibration curve was established using seven-point standards prepared by serial dilution in a range that the unknown sample signal would likely fall in and precisely simulating the sample preparation process. The standards and samples were quantified using LC-MS/MS, and unknown concentrations were back-calculated from the calibration curve.
# [2] = tested on: mouse organ of Corti; assay: EdU proliferation assay in the mouse organ of Corti; assay type: in vivo; conditions: mice, single IP 300 mg/kg; for EdU-positive cells in the OC at 72 h: 72 h treatment group; for EdU-positive cells in the OC at 24 h and 48 h: EdU 50 mg/kg, 4 h, unpaired T-test, p < 0.05
# Procedure: C57BL/6J male and female mice between postnatal day 24 and 30 P-24-30) were randomized into control and experimental groups (9 mice per group per compound), with each experimental group receiving a single intraperitoneal (IP) injection of Qx-294 or Qx-301 at a dose of 300 mg/kg body weight, dissolved in dimethyl sulfoxide (DMSO). Controls consisted of treatment with DMSO alone (vehicle). A total of 90 adult wild-type C57/BL6 mice were used in this study. Based on the analysis, animals were examined at various times following treatment as described below.
# (§1) In vitro cell proliferation effects of all ten initial compounds (Figure 1A,B) were tested on HEI-OC1, Neuro-2A and HT-1080 cells by TACS® 3-(4,5-dimethylthiazol-2-yl)-2,5-diphenyltetrazolium bromide (MTT) Cell Proliferation Assay (R&D Systems, Minneapolis, MN, USA, 4890-025-K), following the manufacturer’s protocol. Absorbance was measured with SpectraMax® M Series Multi-Mode Microplate Reader with Soft Max Pro 7.2 GxP Software (Molecular Devices, Sunnyvale, CA, USA), and the average OD in control cells was taken as 100% of viability. Upon selecting the most viable compounds (Qx-294 and Qx-301), we proceeded with in vivo experiments. For zebrafish treatment, animals were incubated for varied times with different concentrations (50, 100, 150, 200, 250, and 300 μg/mL) of Qx-294 or Qx-301 diluted in swimming (E3) media or administered via IP injections. Mice treatment followed the same procedures as described in [18]. Following treatment, animals or tissue samples were incubated in Click-it EdU or Click-it Plus TUNEL kits (Thermo Scientific, Waltham, MA, USA), following the manufacturer’s instructions to label proliferating and apoptotic cells, respectively.
# Cell numbers in mouse cochleae or fish, as well as fish neuromast morphologies, were evaluated in 25 zebrafish per drug and treatment group across three experimental runs. For mouse analyses, 18 cochleae (from 9 mice) per treatment and three experimental repetitions were examined. Images were analyzed at 200X magnification, obtained from different neuromasts and cochlear regions (apex, middle, and base). HCs were quantified in the mouse OC by counting M7a-positive cells, with HC identity further confirmed by phalloidin-labeled stereocilia. Apoptosis and cell proliferation events, on the other hand, were quantified by counting TUNEL- and EdU-positive cells, respectively. […] The number of HCs (IHCs and OHCs) is expressed as units per 200 μm. […] IHCs and OHCs were counted on reconstructed confocal stacks using NIH ImageJ v1.8.0 software. […] Reliability statistics were calculated in SPSS v22.0. […] Fluorescence incorporation following treatment with FM1-43 was quantified according to [19] using ImageJ. […]
# [3] = PAMPA permeability assay; assay type: in vitro ADME
# Procedure: The parallel artificial membrane permeability assay (PAMPA), an artificial membrane that simulates a biological membrane, was used. A 96-well membrane filter-based microtiter plate system with donor and acceptor compartments separated by the membrane was employed. The compounds were dissolved in 5% DMSO in phosphate-buffered saline (PBS) solution with Lucifer yellow, a dye used to assess membrane integrity. The solution was placed in the donor well, and PBS was added to the acceptor well. The membrane was generated by dissolving lecithin in an inert organic solvent and placed onto a hydrophobic PVDF filter.
# [4] = tested on: zebrafish neuromast cells; assay: TUNEL assay in zebrafish neuromasts; assay type: in vivo, zebrafish (Danio rerio); conditions: 6 h incubation, any concentration tested
# Procedure: Absorbance was measured with SpectraMax® M Series Multi-Mode Microplate Reader with Soft Max Pro 7.2 GxP Software (Molecular Devices, Sunnyvale, CA, USA), and the average OD in control cells was taken as 100% of viability. […] Mice treatment followed the same procedures as described in [18]. Following treatment, animals or tissue samples were incubated in Click-it EdU or Click-it Plus TUNEL kits (Thermo Scientific, Waltham, MA, USA), following the manufacturer’s instructions to label proliferating and apoptotic cells, respectively.
# [5] = tested on: HEI-OC1 cells; assay: TACS MTT cell proliferation / metabolic activity assay in HEI-OC1; assay type: cell-based, mouse; conditions: for Metabolic activity throughout all concentrations: 0.1–100 μM, throughout all concentrations and cell lines; for Proliferative effect vs Qx-70 and untreated cells: HEI-OC1, TACS MTT
# Procedure: HEI-OC1 cells derived from the mouse OC (kindly provided by Dr. F. Kalinec) were cultured under permissive conditions (33 °C, 10% CO2) as described in [22]. Additionally, we assessed the activity of Qx-derived compounds in the mouse neuroblastoma cell line, Neuro-2A, and the human fibrosarcoma HT-1080 (ATCC, Manassas, VA, USA) following the standard cell culture guidelines provided by the vendor.
# as §1
Aqueous solubility [1],solubility at 6 h [1] [µg/mL],Permeability ([3]; 16 h incubation),Papp at 16 h ([3]; read-out: PAMPA permeability) [×10⁻⁶ cm/s],"Papp at 16 h ([3]; 16 h incubation, read-out: Permeability) [×10⁻⁶ cm/s]",SMILES,EdU-positive cells in the OC at 72 h [2],EdU-positive cells in the OC at 24 h and 48 h [2],Apoptosis (TUNEL) in neuromasts [4],Metabolic activity throughout all concentrations [5],Proliferative effect vs Qx-70 and untreated cells [5]
low aqueous solubility,~0.551,3.5 ± 3.0 ×10^−6 cm/s^−1,~3.5,,"c1ccc2nc(N3CCOCC3)cnc2c1 [Qx-294, 2-(morpholine)-quinoxaline]",no proliferating (EdU-positive) cells were observed,higher percentage of EdU-positive cells,no signs of apoptosis,elevated yet stable metabolic activity,significant and reproducible proliferative effects greater than those of Qx-70 and the untreated cells
low aqueous solubility,0.365 ± 0.028,,,0.77 ± 0.91,"c1ccc2nc(N3CCCC3)cnc2c1 [Qx-301, 2-(pyrrolidine)-quinoxaline]",no proliferating (EdU-positive) cells were observed,higher percentage of EdU-positive cells,no signs of apoptosis,elevated yet stable metabolic activity,significant and reproducible proliferative effects greater than those of Qx-70 and the untreated cells

# From paper PMC12731105, “Design and Synthesis of New Quinoxaline Analogs to Regenerate Sensory Auditory Hair Cells” (Cells, 2025)
